US20160000911A1, “COMBINATION THERAPY OF A TYPE II ANTI-CD20 ANTIBODY WITH INCREASED ANTIBODY DEPENDENT CELLULAR CYTOTOXITY (ADCC)” (ROCHE GLYCART AG, priority 2008, published 2016)

What was measured:
[1] = tested on: WSU-DLCL2 human B-Cell Non-Hodgkin-Lymphoma (NHL); assay: Tumor growth inhibition study in vivo, WSU-DLCL2 xenograft (Example 1); set-up: species or system SCID beige mice
From the text: Antibody buffer included histidine, trehalose and polysorbate 20.
Cyclophposphamide and vincristine were purchased as clinical formulation from Baxter Oncology GmbH, Halle, Germany or medac, Gesellschaft für klinische Spezialpräparate mbH, Hamburg, Germany, respectively. Dilution was adjusted from reconstituted stock solution.
WSU-DLCL2 human Non-Hodgkin-Lymphoma (NHL) cells were kindly provided from Hoffmann-La Roche, Inc., Nutley, N.J., USA. […] Passage 4 was used for transplantation. Cells were co-injected with Matrigel.
Continuous health monitoring was carried out on regular basis.
Animal treatment started at the day of randomisation 9 days after cell transplantation. […] The corresponding vehicle was administered on the same days. Cyclophosphamide and vincristine were given i.v. once weekly on day 9, 15, 23, 30, 37, 44, 51 and 58 at 25 mg/kg or 0.25 mg/kg, respectively. In the combination therapy groups, both antibodies were administered 24 hours after the chemotherapeutic agents on day 10, 16, 24, 31, 38, 45, 52 and 59.

[2] = target: T1, CD20 on Raji cells (ATCC-No. CCL-86) (Homo sapiens, UniProt P11836); assay: Ratio of the binding capacities to CD20 on Raji cells compared to rituximab (direct immunofluorescence, Cy5, FACSArray); settings: MFI at EC50 of Cy5-labeled antibodies, 30 min at 4° C.
T1 construct: generated by direct immunofluorescence using the Burkitt's lymphoma cell line Raji (ATCC-No. CCL-86); host or cells: Raji (Burkitt's lymphoma cell line)
T1 sequence (P11836 1-297): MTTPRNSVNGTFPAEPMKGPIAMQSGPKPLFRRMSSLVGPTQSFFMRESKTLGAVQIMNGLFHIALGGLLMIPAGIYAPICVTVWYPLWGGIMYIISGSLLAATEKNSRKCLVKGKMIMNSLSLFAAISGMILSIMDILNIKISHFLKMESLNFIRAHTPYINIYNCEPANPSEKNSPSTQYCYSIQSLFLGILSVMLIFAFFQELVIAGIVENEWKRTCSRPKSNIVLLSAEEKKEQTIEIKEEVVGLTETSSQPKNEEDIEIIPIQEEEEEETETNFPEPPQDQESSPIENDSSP
Description: MFI is the mean fluorescent intensity. The “Cy5-labeling ratio” as used herein means the number of Cy5-label molecules per molecule antibody.
Raji cells (ATCC-No. CCL-86) were maintained in culture in RPMI-1640 medium (PanBiotech GmbH, Cat.-No. PO4-18500) containing 10% FCS (Gibco, Cat.-No. 10500-064). […] 5*10^5 cells per sample were stained for 30 min at 4° C. Afterwards, cells were washed in culture medium. Propidium iodide (PI) staining was used to exclude dead cells.
Then the ratio of the binding capacities to CD20 on Raji cells (ATCC-No. CCL-86) is calculated according to the following formula: […]

- binding capacity to CD20 on Raji cells compared to rituximab [2]: reduces binding capacity
Substance: anti-CD20 antibody B-HH6-B-KV1 GE: Type II anti-CD20 antibody; humanized B-Ly1, glycoengineered B-HH6-B-KV1 with increased ADCC (WO 2005/044859, WO 2007/031875)
- tumor growth inhibition ([1]; day 35 after cell transplantation, compared to the control group, i.v. once weekly, antibodies 30 mg/kg, cyclophosphamide 25 mg/kg, vincristine 0.25 mg/kg): 85%
- Tumor growth delay, T − C value ([1]; median time to reach 1500 mm^3, treatment minus control, until day 64 after cell transplantation): 19 days
